According to US8142829B2, “Beverage composition and method of reducing degradation of monatin” (PepsiCo, Inc., priority 2008, dated 2012):

Tests used:
Type in all cases: physicochemical
[1] = UV exposure of bottled monatin beverage, Atlas CI 5000 with Xenon arc lamp, 24 hours at 86° F.
Experimental: (§1) The following illustrates specific embodiments of the present invention (i.e., embodiments using EMIQ) but are not intended to limit it. All percentages are by weight unless otherwise stated. Heat treatment of bottled beverage was conducted in a thermostatically controlled oven. UV exposure of bottled beverage was conducted within an Atlas CI 5000 with Xenon arc lamp in a thermostatically controlled oven.
Additional analyses of the lemon/lime (“L/L”) flavored beverages above were conducted to determine formation of lactone (reversible) or lactam (irreversible) from monatin.
UV exposure of bottled beverage was conducted within an Atlas CI 5000 with Xenon arc lamp in a thermostatically controlled oven.

[2] = Monatin stabilization / degradation observations in beverage, conditions not stated; conditions: for monatin stabilization ability (rank order): rank by number of hydroxyl groups on the aryl ring
[3] = Heat treatment of bottled monatin beverage in thermostatically controlled oven, one week at 110° F.
Experimental: as §1
Additional analyses of the lemon/lime (“L/L”) flavored beverages above were conducted to determine formation of lactone (reversible) or lactam (irreversible) from monatin. The accumulation of the two degradation products would reduce sweetness impact over time and reduce consumer acceptance of a product containing a beverage comprising monatin. […] The amounts of ascorbic acid (where indicated) was 333 ppm, and the amount of EMIQ (where indicated) was 7.50 ppm (50 uL of 15% EMIQ as San-Melin AO-3000=7.5 ppm).

Question: What does the source list for O=C1O[C@H]([C@@H](O)CO)C(O)=C1O [ascorbic acid]?
Answer: protection against pink coloration and off-flavor development ([1]; 24 h of UV exposure): protects against pink coloration and off-flavor development; Lactam formation ([1]; Cola CSD, 24 h UV exposure, 30 ppm myricitrin, 100 ppm EMIQ, 300 ppm ascorbic acid or none): 2.9 ppm; Monatin + lactone ([1]; L/L CSD, 24 h UV exposure, 30 ppm myricitrin, 100 ppm EMIQ, 300 ppm ascorbic acid or none): 37.7 ppm; Color Hue Change, UV 24 hours @ 86° F. ([1]; Lemon/Lime Carbonated Soft Drink, 265 ppm sodium benzoate, 333 ppm ascorbic acid where indicated, 30 ppm CaNa2EDTA, 50 ppm monatin, Yes* = pink to rust color develops): No; formation of lactam and color hue change with ascorbic acid ([2]; non-colored carbonated soft drink): results in the formation of lactam, a degradation product of monatin, and an undesirable color hue change; Color Hue Change, 1 week @ 110° F. ([3]; Lemon/Lime Carbonated Soft Drink, 265 ppm sodium benzoate, 333 ppm ascorbic acid where indicated, 30 ppm CaNa2EDTA, 50 ppm monatin): No; formation of lactam from monatin ([3]; low pH matrix, heat stress conditions): not ascorbic acid

Question: For O=C(O)/C=C/c1ccc(O)c(O)c1 [caffeic acid], which “monatin stabilization ability (rank order)” value (from here on “monatin stabilization ability”) [2] is on record?
Answer: Its value is “caffeic acid (2 hydroxyl groups)>ferulic acid>coumaric acid>cinnamic acid (no hydroxyl groups)”.

Question: Which “monatin stabilization ability” value [2] does the source give for O=C(O)C=Cc1ccccc1 [cinnamic acid] here?
Answer: The value was “caffeic acid (2 hydroxyl groups)>ferulic acid>coumaric acid>cinnamic acid (no hydroxyl groups)”.

Question: For O=C(O)/C=C/c1ccc(O)cc1 [coumaric acid], which “monatin stabilization ability” value [2] is on record?
Answer: The value was “caffeic acid (2 hydroxyl groups)>ferulic acid>coumaric acid>cinnamic acid (no hydroxyl groups)”.

Question: Which “monatin stabilization ability” value [2] does the source give for COc1cc(/C=C/C(=O)O)ccc1O [ferulic acid] here?
Answer: The value was “caffeic acid (2 hydroxyl groups)>ferulic acid>coumaric acid>cinnamic acid (no hydroxyl groups)”.
